Laboratory results reported in patent publication US20240245677A1, “SELECTED COMPOUNDS FOR TARGETED DEGRADATION OF BRD9” (C4 THERAPEUTICS, INC., priority 2021, published 2024).
Where “and” joins values, the source holds several entries; their conditions need not be identical. Equal entries are not always repeated. Where two headings read alike, the source gives them in different places.

Target: T1, bromodomain of BRD9 (Homo sapiens, UniProt Q9H8M2)
T1 construct: made in house; host or cells: E. coli
Assay: AlphaLISA competition assay, binding to BRD9
Experimental: An AlphaLISA® (Perkin Elmer Inc., Dumfries, VA, USA) displacement assay was used to determine the binding affinity of Compound 1 to purified bromodomain of BRD9 protein.
Human histidine-tagged (His-tag) bromodomain of BRD9 was expressed in E. coli and purified, with a concentration of 1.1 mg/mL. The bromodomain of BRD9 was labeled with an AlphaLISA® donor bead (Catalog No. AS101R, Perkin Elmer Inc., Dumfries, VA, USA) attached via a His-tag on the protein. A potent BRD9 ligand was chemically modified to attach a biotin tag. The biotin tag was subsequently used to attach a streptavidin-labeled AlphaLISA® acceptor bead (Catalog No. AL125M, Perkin Elmer Inc., Dumfries, VA, USA).
Determination of the binding constant (Kd) of Compound 1 to the bromodomain of BRD9 was carried out using an AlphaLISA® competition assay, where binding of Compound 1 to BRD9 was measured via loss of signal upon displacement of biotinylated BRD9 ligand tagged with the AlphaLISA® acceptor bead. […]
Response (normalized signal), R, for each well containing the test compounds was calculated using the averaged signal from negative and positive control wells: […]
Compound 1 competed with fluorescence probe for binding to bromodomain of BRD9. […]

T1 sequence (Q9H8M2 136-240 limits assumed): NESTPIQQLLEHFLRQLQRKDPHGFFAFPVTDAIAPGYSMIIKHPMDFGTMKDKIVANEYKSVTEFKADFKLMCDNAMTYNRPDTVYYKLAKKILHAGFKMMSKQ

## COc1cc(-c2cn(C)c(=O)c(C)c2C)cc(OC)c1CN1CC[C@H](N2CCN(c3ccc(N[C@H]4CCC(=O)NC4=O)cc3F)CC2)C(F)(F)C1 [Compound 1, (S)-3-((4-(4-((S)-1-(2,6-dimethoxy-4-(1,4,5-trimethyl-6-oxo-1,6-dihydropyridin-3-yl)benzyl)-3,3-difluoropiperidin-4-yl)piperazin-1-yl)-3-fluorophenyl)amino)-piperidine-2,6-dione]
Each occasion in duplicate, read-out: Kd, individual test occasion
  Kd: 0.157 µM and 0.131 µM and 0.129 µM
n=3, read-out: Kd (geometric mean), binding affinity to BRD9
  Kd: 0.139 µM
